Data from patent publication US8298513B2, “Hexatriene-β-carbonyl compound” (Osaka University, priority 2007, dated 2012).
Values belong to the compound of their own block, whether it stands above or below them.

Key:
[1] = system: anti-GFP antibody; experiment: Labeling of anti-GFP antibody with Compound 8, GFP fluorescence measurement after immune precipitation; settings: 10 to 1250 equivalents, room temperature 10 minutes; GFP fluorescence excitation 395 nm, emission 509 nm
Procedure: To a PBS buffer solution (81 μl) was added 27 μl of an anti-GFP antibody (20 μg/μl, PBS buffer solution, manufactured by Nacalai Tesque, Inc.) for dilution. The diluted anti-GFP solution was added to 4 Eppendorf tubes each in an amount of 3.3 μM, 8 μl, 2.6×10^−11 mol, and Compound 8 was added in a proportion of 10 equivalents (24 μM, 5 μl, 2.6×10^−10 mol), 50 equivalents (0.12 mM, 5 μl, 1.3×10^−9 mol), 250 equivalents (0.61 mM, 5 μl, 6.6×10^−9 mol) and 1250 equivalents (12 mM, 2.7 μl, 3.3×10^−8 mol) relative to the anti-GFP antibody. The mires were left to stand for 10 minutes at room temperature, and then a GFP antigen (cultured from Escherichia coli, PBS buffer solution, 1000 μl) was added and reacted at 4° C. for 1 hour. Thereafter, Protein G (500 μg, manufactured by GE Healthcare Ltd.) was added to the mixtures and left to stand at the same temperature for 30 minutes. Then, labeled anti-GFP (Compound 24) was purified by subjecting the mixtures to immune precipitation. GFP fluorescence measurement (excitation: 395 nm, emission: 509 nm) was performed on each anti-GFP.

[2] = biological target: T1, human serum albumin (HSA) (Homo sapiens, UniProt P02768); experiment: Labeling of human serum albumin (HSA) with Compound 8, 57Co incorporation, gamma ray counting; settings: room temperature 30 minutes, PBS, gamma ray count
Procedure: HSA (0.5 mg, 7.5 nmol was dissolved in a PBS buffer solution (1.5 ml) to prepare a 5 μM HSA solution. 320 μl (1.6 nmol) of the HSA solution was introduced into each of 3 Eppendorf tubes. 1.2 μl (40 nmol), 2.3 μl (80 nmol) and 11.8 μl (0.4 μmol) of a DMF solution (3.38×10^−2M) of Compound 8 described above were added to the respective Eppendorf tubes. 160 μl (0.8 nmol) of the 5 μM HSA solution was added to each of the Eppendorf tubes, and 11.8 μl (0.4 μmol) of a DMF solution (3.38×10^−2M) of Compound 8 described above was added to each tube. The reaction mixtures all were left to stand at room temperature for 30 minutes. Purification was performed using a filter with a 30000 molecular weight cut off manufactured by Millipore, followed by concentration. The protein concentration in the contents of each Eppendorf tube was measured, 5 μl of the contents of each Eppendorf tube were added to other Eppendorf tubes, and a 0.25 M ammonium acetate buffer solution (15 μl) and a 400 μM ^57Co solution (10 μl) were added thereto. The reaction mixtures were incubated at 41° C. for 3 hours. 10 μl of a 0.01 M 1,4,7,10-tetraazacyclododecane-1,4,7,10-tetraacetic acid (DOTA) solution was added to each reaction mixture, and incubation was performed at 41° C. for 10 minutes. […] The silica gel plates were cut in half lengthwise, and gamma rays were counted with a gamma ray counter using the plates.

[3] = biological target: T1, human serum albumin (HSA); experiment: Labeling of human serum albumin (HSA), fluorescence spectrum of the reaction product; settings: phosphate buffer pH 7.4, 40° C. for 1 hour; 420 nm excitation light
Procedure: (§1) HSA was dissolved in a phosphate buffer (0.1 M, pH 7.4) to adjust the concentration to 5.0×10^−5 M. 20 μl of a phosphate buffer (0.1 M, pH 7.4) was added to 200 μl of the solution for dilution, and the mixture was pre-incubated at 40° C. for 5 minutes. A 1,4-dioxane (20 μl) solution of Compound 50 (50 μg, 0.1 μmol) was added to the mixture, and the mixture was incubated at 40° C. for 1 hour. 300 μl of 1% acetic acid was added to the reaction solution to quench the reaction, and the reaction solution was purified by gel filtration and lyophilized.
as §1, with “buffer solution” for “buffer”, “Compound 56” for “Compound 50”

[4] = PET imaging of the biodistribution of 68Ga-DOTA-labeled somatostatin in a rat; assay type: in vivo, rat (Wistar rat); settings: tail vein, given as 68Ga-DOTA-labeled somatostatin (Compound 41), accumulated 3 to 7 minutes after administration
Procedure: A DMF solution (40 μl) of Compound 8 produced in Example 3 described above was added to a solution of somatostatin (0.17 mg, 0.10 μmol) in Otsuka distilled water (154 μl) and put into a vortex generator. The reaction mixture was left to stand at room temperature for 30 minutes and then lyophilized, thereby giving the titled Compound 9.
A 1 N hydrochloric acid solution (400 μl) of ^68GaCl3 eluted from a ^68Ga/^68Ge generator was purified, neutralized with aqueous 4 N NaOH and then added to Compound 9 described above. After incubation at 40° C. for 10 minutes, it was injected into a rat (Wistar rat 8W, male, 235 g) (1.68 mCi). Propofol was administered continuously at a rate of […] into the tail vein of the rat for tranquilization, and a PET tracer was administered into the tail vein of the rat.

T1 sequence (P02768 25-609): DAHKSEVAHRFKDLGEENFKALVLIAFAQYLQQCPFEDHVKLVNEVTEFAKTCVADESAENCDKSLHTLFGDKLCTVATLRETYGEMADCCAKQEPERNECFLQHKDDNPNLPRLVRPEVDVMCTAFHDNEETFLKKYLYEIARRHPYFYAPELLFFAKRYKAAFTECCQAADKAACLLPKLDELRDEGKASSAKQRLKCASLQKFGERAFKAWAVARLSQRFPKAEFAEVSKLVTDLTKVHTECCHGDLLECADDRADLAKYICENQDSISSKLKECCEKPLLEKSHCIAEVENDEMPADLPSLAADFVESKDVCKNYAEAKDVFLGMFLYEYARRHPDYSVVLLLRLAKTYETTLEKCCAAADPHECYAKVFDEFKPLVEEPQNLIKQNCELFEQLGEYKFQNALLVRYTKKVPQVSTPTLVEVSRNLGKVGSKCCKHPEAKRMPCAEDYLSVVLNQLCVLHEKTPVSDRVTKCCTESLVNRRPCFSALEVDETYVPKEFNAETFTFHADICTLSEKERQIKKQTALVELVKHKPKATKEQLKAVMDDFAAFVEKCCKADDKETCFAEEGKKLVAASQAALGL

labeling reaction with HSA (incorporation into HSA, FIG. 1) [2]: promptly reacts with somatostatin
SMILES: CCOC(=O)C(/C=C/c1ccc(NC(=O)CNC(=O)CN2CCN(CC(=O)O)CCN(CC(=O)O)CCN(CC(=O)O)CC2)cc1)=C/C=O [Compound 8, 10-(2-(2-(4-((1E,3E)-3-ethoxycarbonyl-5-oxopenta-1,3-dienyl)phenylamino)-2-oxoethylamino)-2-oxoethyl)-1,4,7,10-tetraazacyclododecane-1,4,7-triacetic acid]
labeling reaction with anti-GFP antibody (incorporation into antibody, FIG. 2) [1]: promptly reacts with the anti-GFP antibody

SMILES: CCN(CC)c1ccc2cc(C(=O)NCCOCCOC(=O)C(/C=C/c3ccccc3)=C/C=O)c(=O)oc2c1 [Compound 50, 2-(2-(7-diethylaminocoumarin)-3-carbonylaminoethoxy)ethyl (E,E)-4-oxo-2-styrylbut-2-enoate]
fluorescence of the reaction product with HSA [3]: intense fluorescence was observed near 460 nm

SMILES: CCN(CC)c1ccc2cc(C(=O)NCCOCCOC(=O)C(/C=C/c3ccc(NC(=O)CCCCCNc4ccc([N+](=O)[O-])c5nonc45)cc3)=C/C=O)c(=O)oc2c1 [Compound 56, 2-(2-(7-diethylaminocoumarin)-3-carbonylaminoethoxy)ethyl (E,E)-4-oxo-2-((6-(N-(7-nitrobenz-2-oxa-1,3-diazol-4-yl)amino)hexanamide)styryl)but-2-enoate]
fluorescence of the reaction product with HSA [3]: intense fluorescence was observed near 460 nm

SMILES: C[C@H](N)C(=O)NCC(=O)N[C@H]1CSSC[C@@H](C(=O)O)NC(=O)[C@H](CO)NC(=O)[C@H]([C@@H](C)O)NC(=O)[C@H](Cc2ccccc2)NC(=O)[C@H]([C@@H](C)O)NC(=O)[C@H](CCCCN)NC(=O)[C@H](Cc2c[nH]c3ccccc23)NC(=O)[C@H](Cc2ccccc2)NC(=O)[C@H](Cc2ccccc2)NC(=O)[C@H](CC(N)=O)NC(=O)[C@H](CCCCN)NC1=O [somatostatin]
distribution in the living body (PET image, FIG. 3) [4]: distributed across the heart of the rat
